Data on 16 molecules can be found in US10493060B2, “Spirocyclic compounds” (ZENO ROYALTIES & MILESTONES, LLC, priority 2015, dated 2019).

Broadly, the IC50 is the midpoint of a concentration-inhibition curve.

Bounds are passed on as bounds.

For one assay, the target named is Activated ERK2 (Homo sapiens (Human), UniProt P28482). Briefly: Active ERK2 kinase assay (Mobility Shift Assay). The assay is classed as biochemical. The protocol: (§1) Activated ERK1 and ERK2 activity was determined in a Mobility Shift Assay (MSA) format as follows: Compound and kinase solution were prepared with assay buffer (20 mM HEPES, 0.01% Triton X-100, 2 mM DTT, pH7.5) and mixed and incubated in for 30 mins at rt. ERK1 & ERK2 were then activated by the addition of Fl-Substrate, ATP and metal solution and incubated for 1 h at rt. After 1 h, the reaction was terminated by the addition of […] of Termination Buffer (QuickScout Screening Assist MSA; Carna Biosciences) to the well. The reaction mixture was applied to LabChip™ system (PerkinElmer), and the product and substrate peptide peaks were separated, analyzed and quantitated. The kinase reaction is evaluated by the product ratio calculated from peak heights of product (P) and substrate (S) peptides (P/(P+S)).
Sequence of Activated ERK2 (P28482 whole entry): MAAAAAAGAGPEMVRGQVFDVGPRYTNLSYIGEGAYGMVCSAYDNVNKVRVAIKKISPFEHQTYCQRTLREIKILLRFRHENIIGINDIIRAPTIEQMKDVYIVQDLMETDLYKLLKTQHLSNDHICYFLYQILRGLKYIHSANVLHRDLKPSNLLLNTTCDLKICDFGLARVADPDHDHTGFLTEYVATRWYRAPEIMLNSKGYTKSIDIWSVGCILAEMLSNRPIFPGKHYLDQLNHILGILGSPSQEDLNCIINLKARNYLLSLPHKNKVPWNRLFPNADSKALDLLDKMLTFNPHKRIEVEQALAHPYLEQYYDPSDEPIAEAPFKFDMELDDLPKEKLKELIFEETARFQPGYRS
In the case of `CC(C)Oc1ccc(-c2n[nH]c3ccc(N4CCC5(CCN(CC(=O)N6CCN(c7ccc(-c8ncn(C)n8)cc7)CC6)C5)C4=O)cc23)cn1` (centres unmarked) [Example 3, 2-(3-(6-Isopropoxypyridin-3-yl)-1H-indazol-5-yl)-7-(2-(4-(4-(1-methyl-1H-1,2,4-triazol-3-yl)phenyl)piperazin-1-yl)-2-oxoethyl)-2,7-diazaspiro[4.4]nonan-1-one], the IC50 was at most 50 nM. Same read-out and setting: the figure for `Cn1cnc(-c2ccc(N3CCN(C(=O)CN4CC[C@]5(CCN(c6ccc7[nH]nc(C8CC8)c7c6)C5=O)C4)CC3)cc2)n1` [Example 44, (S)-2-(3-Cyclopropyl-1H-indazol-5-yl)-7-(2-(4-(4-(1-methyl-1H-1,2,4-triazol-3-yl)phenyl)piperazin-1-yl)-2-oxoethyl)-2,7-diazaspiro[4.4]nonan-1-one] is 50 to 250 nM; for `Cc1noc(-c2ccc(C3=CCN(C(=O)CN4CC[C@]5(CCN(c6ccc7[nH]nc(-c8ccc(OC(C)C)nc8)c7c6)C5=O)C4)CC3)cc2)n1` [Example 54, (S)-2-(3-(6-Isopropoxypyridin-3-yl)-1H-indazol-5-yl)-7-(2-(4-(4-(3-methyl-1,2,4-oxadiazol-5-yl)phenyl)-3,6-dihydropyridin-1(2H)-yl)-2-oxoethyl)-2,7-diazaspiro[4.4]nonan-1-one] it is at most 50 nM. Turning to `CC(C)Oc1ccc(-c2n[nH]c3ccc(N4CC[C@]5(CCN(CC(=O)N6CC=C(c7ccc(-c8ncn(C)n8)c(F)c7)CC6)C5)C4=O)cc23)cn1` [Example 56, (S)-7-(2-(4-(3-Fluoro-4-(1-methyl-1H-1,2,4-triazol-3-yl)phenyl)-3,6-dihydropyridin-1(2H)-yl)-2-oxoethyl)-2-(3-(6-isopropoxypyridin-3-yl)-1H-indazol-5-yl)-2,7-diazaspiro[4.4]nonan-1-one], the 50% inhibitory concentration (IC50) is at most 50 nM. The same measure, in the same setting: the figure for `CCNc1n[nH]c2ccc(N3CC[C@]4(CCN(CC(=O)N5CC=C(c6ccc(-c7ncn(C)n7)cc6)CC5)C4)C3=O)cc12` [Example 53, (S)-2-(3-(Ethylamino)-1H-indazol-5-yl)-7-(2-(4-(4-(1-methyl-1H-1,2,4-triazol-3-yl)phenyl)-3,6-dihydropyridin-1(2H)-yl)-2-oxoethyl)-2,7-diazaspiro[4.4]nonan-1-one] is 50 to 250 nM; for `CCn1cnc(-c2ccc(C3=CCN(C(=O)CN4CC[C@]5(CCN(c6ccc7[nH]nc(-c8ccc(OC(C)C)nc8)c7c6)C5=O)C4)CC3)cc2)n1` [Example 46, (S)-7-(2-(4-(4-(1-Ethyl-1H-1,2,4-triazol-3-yl)phenyl)-3,6-dihydropyridin-1(2H)-yl)-2-oxoethyl)-2-(3-(6-isopropoxypyridin-3-yl)-1H-indazol-5-yl)-2,7-diazaspiro[4.4]nonan-1-one] it is at most 50 nM. Same read-out and setting: then `CC(C)Oc1ccc(-c2n[nH]c3ccc(N4CC[C@]5(CCN(CC(=O)N6CC=C(c7ccc(-c8ncn(CCO)n8)cc7)CC6)C5)C4=O)cc23)cn1` [Example 47, (S)-7-(2-(4-(4-(1-(2-Hydroxyethyl)-1H-1,2,4-triazol-3-yl)phenyl)-3,6-dihydropyridin-1(2H)-yl)-2-oxoethyl)-2-(3-(6-isopropoxypyridin-3-yl)-1H-indazol-5-yl)-2,7-diazaspiro[4.4]nonan-1-one], with at most 50 nM; and `Cn1cnc(-c2ccc(C3=CCN(C(=O)CN4CC[C@]5(CCN(c6ccc7[nH]nc(C#N)c7c6)C5=O)C4)CC3)cc2)n1` [Example 51, (S)-5-(7-(2-(4-(4-(1-Methyl-1H-1,2,4-triazol-3-yl)phenyl)-3,6-dihydropyridin-1(2H)-yl)-2-oxoethyl)-1-oxo-2,7-diazaspiro[4.4]nonan-2-yl)-1H-indazole-3-carbonitrile], with at most 50 nM.

As for `COCCn1cnc(-c2ccc(C3=CCN(C(=O)CN4CC[C@]5(CCN(c6ccc7[nH]nc(-c8ccc(OC(C)C)nc8)c7c6)C5=O)C4)CC3)cc2)n1` [Example 49, (S)-2-(3-(6-Isopropoxypyridin-3-yl)-1H-indazol-5-yl)-7-(2-(4-(4-(1-(2-methoxyethyl)-1H-1,2,4-triazol-3-yl)phenyl)-3,6-dihydropyridin-1(2H)-yl)-2-oxoethyl)-2,7-diazaspiro[4.4]nonan-1-one], the IC50 is at most 50 nM. Same read-out and setting: then `CC(C)Oc1ccc(-c2n[nH]c3ccc(N4CC[C@]5(CCN(CC(=O)N6CC=C(c7ccc(-c8ncn(C9CC9)n8)cc7)CC6)C5)C4=O)cc23)cn1` [Example 50, (S)-7-(2-(4-(4-(1-Cyclopropyl-1H-1,2,4-triazol-3-yl)phenyl)-3,6-dihydropyridin-1(2H)-yl)-2-oxoethyl)-2-(3-(6-isopropoxypyridin-3-yl)-1H-indazol-5-yl)-2,7-diazaspiro[4.4]nonan-1-one], with at most 50 nM. The same measure, in the same setting: then `Cn1cnc(-c2ccc(C3=CCN(C(=O)CN4CC[C@]5(CCN(c6ccc7[nH]nc(-c8ccc(S(C)(=O)=O)cc8)c7c6)C5=O)C4)CC3)cc2)n1` [Example 58, (S)-7-(2-(4-(4-(1-Methyl-1H-1,2,4-triazol-3-yl)phenyl)-3,6-dihydropyridin-1(2H)-yl)-2-oxoethyl)-2-(3-(4-(methylsulfonyl)phenyl)-1H-indazol-5-yl)-2,7-diazaspiro[4.4]nonan-1-one], with at most 50 nM; and `CC(C)Oc1ccc(-c2n[nH]c3ccc(N4CC[C@]5(CCN(CC(=O)N6CC=C(c7ccc(-c8ncn(C)n8)cc7F)CC6)C5)C4=O)cc23)cn1` [Example 55, (S)-7-(2-(4-(2-Fluoro-4-(1-methyl-1H-1,2,4-triazol-3-yl)phenyl)-3,6-dihydropyridin-1(2H)-yl)-2-oxoethyl)-2-(3-(6-isopropoxypyridin-3-yl)-1H-indazol-5-yl)-2,7-diazaspiro[4.4]nonan-1-one], with at most 50 nM; and `Cn1cc(-c2n[nH]c3ccc(N4CC[C@]5(CCN(CC(=O)N6CC=C(c7ccc(-c8ncn(C)n8)cc7)CC6)C5)C4=O)cc23)cn1` [Example 48, (S)-7-(2-(4-(4-(1-Methyl-1H-1,2,4-triazol-3-yl)phenyl)-3,6-dihydropyridin-1 (2H)-yl)-2-oxoethyl)-2-(3-(1-methyl-1H-pyrazol-4-yl)-1H-indazol-5-yl)-2,7-diazaspiro[4.4]nonan-1-one], with at most 50 nM.

Consider `Cn1cnc(-c2ccc(C3=CCN(C(=O)CN4CC[C@]5(CCN(c6ccc7[nH]nc(C8CC8)c7c6)C5=O)C4)CC3)cc2)n1` [Example 45, (S)-2-(3-Cyclopropyl-1H-indazol-5-yl)-7-(2-(4-(4-(1-methyl-1H-1,2,4-triazol-3-yl)phenyl)-3,6-dihydropyridin-1(2H)-yl)-2-oxoethyl)-2,7-diazaspiro[4.4]nonan-1-one], for which the IC50 is at most 50 nM. Same read-out and setting: then `Cc1ccc(-c2n[nH]c3ccc(N4CC[C@]5(CCN(CC(=O)N6CC=C(c7ccc(-c8ncn(C)n8)cc7)CC6)C5)C4=O)cc23)cn1` [Example 57, (S)-7-(2-(4-(4-(1-Methyl-1H-1,2,4-triazol-3-yl)phenyl)-3,6-dihydropyridin-1(2H)-yl)-2-oxoethyl)-2-(3-(6-methylpyridin-3-yl)-1H-indazol-5-yl)-2,7-diazaspiro[4.4]nonan-1-one], with at most 50 nM; and `Cn1cnc(-c2ccc(C3=CCN(C(=O)CN4CC[C@]5(CCN(c6ccc7[nH]nc(C(F)F)c7c6)C5=O)C4)CC3)cc2)n1` [Example 52, (S)-2-(3-(Difluoromethyl)-1H-indazol-5-yl)-7-(2-(4-(4-(1-methyl-1H-1,2,4-triazol-3-yl)phenyl)-3,6-dihydropyridin-1(2H)-yl)-2-oxoethyl)-2,7-diazaspiro[4.4]nonan-1-one], with at most 50 nM.

For the next assay, the target named is Activated ERK1 (Homo sapiens (Human), UniProt P27361). The assay can be described thus: Active ERK1 kinase assay (Mobility Shift Assay). Format: biochemical. As to the method: as §1
Sequence of Activated ERK1 (P27361 whole entry): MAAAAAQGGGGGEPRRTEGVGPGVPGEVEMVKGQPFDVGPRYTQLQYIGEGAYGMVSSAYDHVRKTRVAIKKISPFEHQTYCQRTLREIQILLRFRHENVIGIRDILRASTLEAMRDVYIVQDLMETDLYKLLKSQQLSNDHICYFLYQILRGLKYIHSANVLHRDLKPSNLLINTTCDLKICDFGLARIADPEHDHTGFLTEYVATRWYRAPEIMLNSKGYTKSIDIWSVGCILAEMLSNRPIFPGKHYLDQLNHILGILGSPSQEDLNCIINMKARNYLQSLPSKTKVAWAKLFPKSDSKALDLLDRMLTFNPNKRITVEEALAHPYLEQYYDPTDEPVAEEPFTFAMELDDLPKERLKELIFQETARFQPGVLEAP
For the molecule `CC(C)Oc1ccc(-c2n[nH]c3ccc(N4CCC5(CCN(CC(=O)N6CCN(c7ccc(-c8ncn(C)n8)cc7)CC6)C5)C4=O)cc23)cn1` (centres unmarked) [Example 3, 2-(3-(6-Isopropoxypyridin-3-yl)-1H-indazol-5-yl)-7-(2-(4-(4-(1-methyl-1H-1,2,4-triazol-3-yl)phenyl)piperazin-1-yl)-2-oxoethyl)-2,7-diazaspiro[4.4]nonan-1-one], the IC50 was at most 50 nM.
